Consider one molecule from EPA's ToxValDB 9.5 (doi:10.2903/j.efsa.2013.3166).

One data set relates to Apis mellifera. As to conditions: acute, duration: 48 hours, mortality.
Another data set deals with Perca sp. As to conditions: acute; duration: 96 hours; mortality.
The subject of another data set is Canidae. The following applies: chronic; duration: 1 years; oral; Dog Other; food consumption.
For a further data set, the system named is Lepomis macrochirus. As to conditions: acute; duration: 96 hours; mortality.
Another data set deals with Colinus virginianus. The following applies: for LD50: acute, oral, mortality.
The next data set relates to Pimephales promelas. The following applies: acute; mortality.
The test system of another data set is Typhlodromus pyri. The data set is described as follows: LR50; higher = less toxic. As to conditions: not reported; mortality.
Where [1] appears, read: acute, duration: 14 days, mortality.

In brackets after ≈: the same amount, converted by molar mass. Where only a bound is given, the exact number is not on record here.

For the molecule `CC(C)(C)c1ccc(CCOc2ncnc3ccccc23)cc1` [Fenazaquin], the LD50 in the data set on Apis mellifera (dermal) is 1.21 µg/piece; in the data set on Apis mellifera (oral, unspecified) it was 4.29 µg/piece; in the data set on Rattus norvegicus (acute, oral, M, mortality), 134 mg/kg-day; in the data set on Colinus virginianus (diet), greater than 1170 mg/kg-day; in the data set with Colinus virginianus, 1750 mg/kg-day. Moreover, the LC50 in the data set with Perca sp. is 3.2 ng/mL (≈ 0.0104 µM); in the data set on Lepomis macrochirus it was 34.1 ng/mL (≈ 0.111 µM); with Folsomia candida (setting [1]), greater than 1000 mg/kg; in the data set on Pimephales promelas, 4.2 ng/mL (≈ 0.0137 µM); in the data set on Tagia sp. (setting [1]) it was 26.5 mg/kg. Moreover, the NOAEL is 5 mg/kg-day in the data set with Canidae; 0.46 mg/kg-day with Rattus norvegicus (chronic, duration: 2 years, oral, histopathology: nonneoplastic); 10 mg/kg-day in the data set with Rattus norvegicus (reproduction developmental, food consumption). Moreover, the NOEC with Folsomia candida (chronic/long-term, duration: 28 days) amounted to 23 mg/kg; with Colinus virginianus (reproduction developmental), 80.3 mg/kg-day; with Tagia sp. (chronic/long-term, duration: 8 weeks) it was 1.25 mg/kg. Besides, the NOEL in the data set on Rattus norvegicus (reproduction developmental) came to 25 mg/kg-day. For the same molecule, the LR50 in the data set with Typhlodromus pyri is less than 2 g/ha.
